# Test results reported in patent US20220274991A1, “SMALL MOLECULE INHIBITORS OF KU70/80 AND USES THEREOF” (Arizona Board of Regents on Behalf of the University of …, priority 2019, published 2022).
# Target: T1, Ku70/80 (Homo sapiens, UniProt P12956+P13010)
# T1 construct: purchased AMRI
# Assay: EMSA IC50 (AMRI Ku70/80)
# Assay type: binding
# Settings: Hill equation fitted
# T1 sequence (P12956 whole entry): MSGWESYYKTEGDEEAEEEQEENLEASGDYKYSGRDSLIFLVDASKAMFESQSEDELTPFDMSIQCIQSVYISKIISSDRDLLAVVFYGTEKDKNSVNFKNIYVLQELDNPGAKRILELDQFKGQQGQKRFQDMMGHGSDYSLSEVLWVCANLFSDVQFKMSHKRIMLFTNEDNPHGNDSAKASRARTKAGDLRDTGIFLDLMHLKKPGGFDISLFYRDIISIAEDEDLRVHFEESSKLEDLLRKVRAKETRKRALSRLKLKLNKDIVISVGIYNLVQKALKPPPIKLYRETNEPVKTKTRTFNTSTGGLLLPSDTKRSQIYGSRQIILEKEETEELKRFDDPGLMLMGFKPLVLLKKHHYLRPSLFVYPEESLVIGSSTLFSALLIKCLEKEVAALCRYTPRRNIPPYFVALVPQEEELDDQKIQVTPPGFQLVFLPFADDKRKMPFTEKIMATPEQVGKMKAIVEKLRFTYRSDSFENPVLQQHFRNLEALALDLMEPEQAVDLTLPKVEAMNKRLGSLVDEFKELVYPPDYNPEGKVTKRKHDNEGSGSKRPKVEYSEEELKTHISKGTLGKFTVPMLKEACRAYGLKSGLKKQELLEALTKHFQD
# T1 sequence (P13010 whole entry): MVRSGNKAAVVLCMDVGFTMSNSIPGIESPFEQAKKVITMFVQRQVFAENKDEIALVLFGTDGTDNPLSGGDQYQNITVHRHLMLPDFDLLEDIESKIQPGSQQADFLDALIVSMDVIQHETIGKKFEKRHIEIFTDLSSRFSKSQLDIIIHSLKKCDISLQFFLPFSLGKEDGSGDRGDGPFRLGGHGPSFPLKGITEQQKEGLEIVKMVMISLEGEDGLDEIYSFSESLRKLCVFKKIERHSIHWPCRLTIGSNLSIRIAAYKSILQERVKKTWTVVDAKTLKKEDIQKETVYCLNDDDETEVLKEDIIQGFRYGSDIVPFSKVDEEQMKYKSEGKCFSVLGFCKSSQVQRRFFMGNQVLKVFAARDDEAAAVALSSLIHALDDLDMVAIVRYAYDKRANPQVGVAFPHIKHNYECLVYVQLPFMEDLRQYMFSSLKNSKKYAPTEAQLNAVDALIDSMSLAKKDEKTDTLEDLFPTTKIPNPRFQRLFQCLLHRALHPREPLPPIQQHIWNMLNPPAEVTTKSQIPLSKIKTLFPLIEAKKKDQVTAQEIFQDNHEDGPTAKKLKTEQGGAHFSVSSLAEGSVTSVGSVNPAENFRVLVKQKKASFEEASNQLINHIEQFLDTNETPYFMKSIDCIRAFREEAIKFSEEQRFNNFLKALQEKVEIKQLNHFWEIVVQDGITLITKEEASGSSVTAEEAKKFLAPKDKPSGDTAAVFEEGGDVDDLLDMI
row,SMILES,IC50
1,NS(=O)(=O)c1ccc(CCNc2ncc3c(=O)n(-c4cccc(F)c4)c(=O)[nH]c3n2)cc1,50 µM
2,O=C(O)c1ccc(CNc2ncc3c(=O)n(-c4cccc(F)c4)c(=O)[nH]c3n2)cc1,196 µM
3,O=c1[nH]c2nc(NCCc3cccc(F)c3)ncc2c(=O)n1-c1cccnc1,245 µM
4,O=c1[nH]c2nc(NCCc3cccnc3)ncc2c(=O)n1-c1cccc(F)c1,40 µM
5,O=c1[nH]c2nc(NCCc3cccc(F)c3)ncc2c(=O)n1-c1ccccn1,58 µM
6,O=c1[nH]c2nc(NCCc3ccncc3)ncc2c(=O)n1-c1cccc(F)c1,18 µM
7,O=c1[nH]c2nc(NCCc3ccccn3)ncc2c(=O)n1-c1cccc(F)c1,18 µM
8,O=c1[nH]c2nc(NCCc3ccc4c(c3)OCO4)ncc2c(=O)n1-c1cccc(F)c1,9.1 µM
9,O=c1[nH]c2nc(NCCc3ccc4c(c3)OC(F)(F)O4)ncc2c(=O)n1-c1cccc(F)c1,20 µM
10,O=c1[nH]c2nc(NCCc3ccc4c(c3)OCCO4)ncc2c(=O)n1-c1cccc(F)c1,20 µM
11,O=c1[nH]c2nc(NCCc3ccccc3)ncc2c(=O)n1-c1cccc(F)c1,28 µM
12,CN(CCc1cccc(F)c1)c1ncc2c(=O)n(-c3cccc(F)c3)c(=O)[nH]c2n1,142 µM
13,COc1ccc(CCN(C)c2ncc3c(=O)n(-c4cccc(F)c4)c(=O)[nH]c3n2)cc1OC,184 µM
14,COc1ccc(CCNc2ncc3c(=O)n(-c4cccc(F)c4)c(=O)[nH]c3n2)cc1F,54 µM
15,O=c1[nH]c2nc(NCCc3ccc(O)c(F)c3)ncc2c(=O)n1-c1cccc(F)c1,101 µM
16,O=c1[nH]c2nc(NCCc3ccc(F)c(F)c3)ncc2c(=O)n1-c1cccc(F)c1,33 µM
17,O=c1[nH]c2nc(NCC3CCCc4c(F)cccc43)ncc2c(=O)n1-c1cccc(F)c1 (stereo not drawn),20 µM

row,SMILES,IC50
1,O=c1[nH]c2nc(NCc3cccc4c(F)cccc34)ncc2c(=O)n1-c1cccc(F)c1,21 µM
2,O=c1[nH]c2nc(N3CCc4cc(F)ccc4C3)ncc2c(=O)n1-c1cccc(F)c1,34 µM
3,O=c1[nH]c2nc(NCCc3cccc(F)c3)ncc2c(=O)n1-c1cc(F)ccc1F,249 µM
4,COc1c(F)cccc1-n1c(=O)[nH]c2nc(NCCc3cccc(F)c3)ncc2c1=O,27 µM
5,COc1ccc(-n2c(=O)[nH]c3nc(NCCc4cccc(F)c4)ncc3c2=O)cc1F,11 µM
6,CCOC(=O)c1cccc(-n2c(=O)[nH]c3nc(NCCc4cccc(F)c4)ncc3c2=O)c1,11 µM
7,COc1ccc(-n2c(=O)[nH]c3nc(NCCc4cccc(F)c4)ncc3c2=O)cc1OC,22 µM
8,O=c1[nH]c2nc(NCCc3cccc(F)c3)ncc2c(=O)n1Cc1ccccc1F,10 µM
9,O=c1[nH]c2nc(NCCc3cccc(F)c3)ncc2c(=O)n1-c1nccs1,43 µM
10,O=c1[nH]c2nc(NCCc3cccc(F)c3)ncc2c(=O)n1CC1CCNCC1,45 µM
11,CC(C)Cn1c(=O)[nH]c2nc(NCCc3cccc(F)c3)ncc2c1=O,5.3 µM
12,O=c1[nH]c2nc(NCCc3cccc(F)c3)ncc2c(=O)n1CCO,8.8 µM
13,NS(=O)(=O)c1ccc(-n2c(=O)[nH]c3nc(NCCc4cccc(F)c4)ncc3c2=O)cc1,6.9 µM
14,O=c1[nH]c2nc(NCCc3cccc(F)c3)ncc2c(=O)n1-c1ccc(N2CCOCC2)c(F)c1,6.9 µM
15,O=c1[nH]c2nc(NCCc3cccc(F)c3)ncc2c(=O)n1-c1ccc(Br)cc1,7.6 µM
16,CSc1ncc2c(=O)n(-c3ccc(Br)cc3)c(=O)[nH]c2n1,20 µM
